The values below come from patent US20220323471A1 (priority 2019, published 2022).

Read-outs that look alike come from different tables or passages of the source.

For series [1], the system named is endosomes and lysosomes of HT1080 cells. Kind of series: Acridine Orange fluorescence, endosomal/lysosomal acidification. The series is classed as cell-based, human. Particulars: 4 hours pre-incubation, DGP, diphyllin, 6DG 2, 1 or 0.1 μM, Bafilomycin 100 nM, NH4Cl 25 mM. As for the experimental part: To determine whether DGP inhibited ZIKV infection by preventing the acidification of endosomes and lysosomes, Acridine Orange (AO) was used, a cell-permeable fluorescent dye marker that accumulates in low pH compartments such as endosomes and lysosomes.
HT1080 cells were pre-incubated for 4 hours with the Bafilomycin (FIG. 10A, 100 nM), NH4Cl (FIG. 10A, 25 mM), DGP (FIG. 10B: 2 μM, 1 μM, or 0.1 μM) diphyllin (FIG. 10C: 2 μM, 1 μM, or 0.1 μM), or 6DG (FIG. 10C: 2 μM, 1 μM, or 0.1 μM) to test whether DGP prevents endosomal/lysosomal acidification. After staining the cells with 1 μg/mL of AO, changes in fluorescence were measured using a Celesta flow cytometer on the PerCP-Cy5-5-A channel. A shift in the AO fluorescence is indicated with an arrow in FIGS. 10A-10D.
Acridine Orange (Invitrogen) staining was performed as described previously (Kanzawa, T. et al. 2004, “Role of autophagy in temozolomide-induced cytotoxicity for malignant glioma cells.” Cell Death Differ 11(4): 448-457). Cells were stained with 1 μg/mL AO in 10% FBS DMEM for 30 min at 37° C. and then collected by trypsinization. Changes in fluorescence were measured using a Celesta flow cytometer in the PerCP-Cy5-5-A channel.

Another series relates to EBV RVP. The series is classed as cell-based, Ebola virus.
The next series has as its system Sendai Virus (SeV). Put plainly: Sendai Virus infection and IFN-β production in CHME3 cells. The series is classed as cell-based. Particulars: SeV MOI 1 and 10, DGP 1 μM, NH4Cl 20 mM. As for the experimental part:
The Flaviviridae family of viruses encode a glycoprotein that is necessary to achieve fusion at the endosomal/lysosomal membranes, the step that releases viral components into the cytoplasm. […] Instead, SeV fuses at the plasma membrane. To this end, IFN-β production and viral infection were measured in CHME3 cells infected with SeV at an MOI 1 and 10 in the presence of DGP (1 μM) or 20 mM NH4Cl.
To detect viral copies of ZIKV and Sendai Virus (SeV) by qRT-PCR, cells were seeded in 24-well plates, with or without DGP treatment, and infected with the virus at the indicated MOI for 48 h. After the incubation period, total RNA from HT1080, VERO, and CHME3 cells was isolated and purified using Trizol (Invitrogen). For detection of ZIKV viral load in brain and spleen, 3 mice were sacrificed at 6 days post-infection and total RNA was extracted from the brain and spleen. For cDNA synthesis, 1 ng of total RNA was reverse transcribed. The reaction mixture included 1 mM of deoxyribonucleotide phosphates (dNTPs), 2 nM of the specific reverse primer of ZIKV or SeV, 1× M-MULV buffer, 10 U M-MuLV RT (BioLabs), and 2 U of RNase Inhibitor. The reaction mixture was incubated for 1 hour at 42° C. followed by 20 min at 65° C. to inactivate the enzyme. For actin detection, Oligo-dT was used to reverse transcribe total RNA.
ZIKV RNA levels were measured using real-time PCR. HT1080 and VERO cells were challenged by ZIKV MR766 at an MOI of 1 in the presence of DGP. At 48 hours post-challenge, cells were lysed and total RNA was extracted using trizol. Total RNA was used to determine the levels of ZIKV RNA by real-time PCR using specific primers against ZIKA. qRT-PCR was carried out using SYBR green in a 20-μl final volume using a MASTERCYCLER proS machine. The primers used to detect ZIKV were: SEQ ID NO. 1: 5′-TT […]-3′-Forward (Genome Position 941-964) and SEQ ID NO. 2: 5′-[…]-3′-Reverse (Genome position 1123-1103) (AY632535.2). For the detection of SeV, the following primers were used: SEQ ID NO. 3: 5′-[…]-3′-Forward (Genome position 210-233) and SEQ ID NO. 4: 5′-[…]-3′-Reverse (Genome position 332-307) (M30202. Genome position 210-332) (Wagner, A. M. et al. 2003, “Detection of sendai virus and pneumonia virus of mice by use of fluorogenic nuclease reverse transcriptase polymerase chain reaction analysis.” Comp Med 53(2): 173-177). For the detection of IFN-β the following primers were used: SEQ ID NO. 5: Forward 5-[…]-3′ (Genome position 644-668) and SEQ ID Na 6: Reverse 5′-[…]-3′ (Genome position 718-697) (NM_002176.2) and for actin detection: SEQ ID NO. 7: 5′-[…]-′3-Forward and SEQ ID NO. 8: 5′-[…]′3-Reverse. ZIKA viral RNA levels were normalized to actin (upper panels). […]

The subject of the next series is DENV1-RVP. The series is classed as cell-based, dengue virus. Particulars: VERO cells; DGP 1 μM; NH4Cl 20 mM.
The subject of a further series is WNV-RVP. The class given is cell-based, West Nile virus. The note with it: VERO cells; DGP 1 μM; NH4Cl 20 mM.
The subject of the next series is TBEV-RVP. The series is classed as cell-based, tick-borne encephalitis virus.
Another series concerns ZIKV strain MR766. Kind of series: ZIKV strain MR766 infection, 4G2 antibody flow cytometry. The note with it: for IC50: Zika virus.
For another series, the system named is JEV-RVP. The series is classed as cell-based, Japanese encephalitis virus. The note with it: VERO cells; DGP 1 μM; NH4Cl 20 mM.
The next series concerns ZIKV. The note with it: cited from earlier work.
Series [2] deals with HT1080, CHME3, VERO cells. Put plainly: MTT cell viability assay. The class given is cell-based, human and monkey. The note with it: human or monkey cells (HT1080, CHME3, VERO); 48 hours. Here is the method:
Cell viability was determined by measuring the reduction of the tetrazolium dye MTT [3-(4,5-dimethylthiazol-2-yl)-2,5-diphenyltetrazolium bromide] to its insoluble form formazan. We treated 4×10^3 cells/well in a 96-well plate with serial dilutions of the indicated drugs. Human and monkey cells were incubated with DGP, diphyllin, or 6-deoxy-D-glucose for 48 hours at 37° C. After the incubation period, 10 μl MTT solution (5 mg/mL) was added to each well for an additional 4 hours at 37° C. Finally, the media was removed and dimethyl sulfoxide was added (200 μl/well) according to the manufacturer's instructions. The optical density was measured at 570 nm using a microplate reader. Experiments were performed in triplicates and standard deviations are shown. Mock-treated cells represent 100% viability.

`C[C@@H](O)[C@@H](O)[C@H](O)[C@@H](O)C=O` [Formula 6DG, 6-deoxyglucose, reference compound]: the “acidification of endosomes and lysosomes (AO fluorescence)” value (shortened to “acidification of endosomes and lysosomes”) in series [1] is “did not prevent”.
For the compound `Cl.N` [NH4Cl, ammonium chloride, reference compound], the “EBV RVP infection” value in the series with EBV RVP is “inhibited infection”. Further, in the series on Sendai Virus (SeV), the “IFN-β production in SeV-infected cells” value is reported as “increased induction” and the “SeV infection / viral replication” value is “increased viral replication”. Also, the “acidification of endosomes and lysosomes” value in series [1] is “prevent endosomal and lysosomal acidification”. In addition, the “DENV1 RVP infection” value in the series on DENV1-RVP was “inhibited infection”. Besides, in the series on WNV-RVP, the “WNV RVP infection” value is “inhibited infection”. Further, the “TBEV RVP infection” value with TBEV-RVP is “inhibited infection”. The “percentage of 4G2-positive cells” value in the series on ZIKV strain MR766 (CHME3 cells, MOI 1, DGP 0.1 and 1 μM, NH4Cl 20 mM, 48 hours) was “substantial decrease”. For the same compound, the “JEV RVP infection” value with JEV-RVP is listed as “inhibited infection”.
Turning to `CCN(CC)CCCC(C)Nc1ccnc2cc(Cl)ccc12` (stereo not shown) [chloroquine], in the series with ZIKV, the “required inhibitory concentrations for ZIKV in cell culture” value is given as “micromolar range”.
As to `COc1cc2c(O)c3c(c(-c4ccc5c(c4)OCO5)c2cc1OC)C(=O)OC3` [diphyllin, Diphyllin], the “acidification of endosomes and lysosomes” value in series [1] was “prevented the acidification of endosomes and lysosomes but to a lesser extent”. For the same compound, the IC50 in the series on ZIKV strain MR766 (HT-1080, read-out: IC50, ZIKV infection) was 0.06 µM; with ZIKV strain MR766 (read-out: IC50, ZIKV infection) it was 0.21 µM. Moreover, in [2], the “toxicity at concentrations required to inhibit ZIKV infection (MTT)” value is reported as “not toxic”.
On to `CCN(CCO)CCCC(C)Nc1ccnc2cc(Cl)ccc12` (stereo not shown) [hydroxychloroquine], for which, in the series with ZIKV, the “required inhibitory concentrations for ZIKV in cell culture” value was “micromolar range”.
